pIC50: −log10 of the molar value.
Key:
[1] = biological target: Ephrin type-B receptor 4 (Homo sapiens, UniProt P54760); assay: Selectivity interaction (Kinase panel (33PanQinase(R) Activity Assay)) EUB0000877a EPHB4
[2] = biological target: Protein kinase C beta type (Homo sapiens, UniProt P05771); assay: Selectivity interaction (SelectScreen profiling (Invitrogen)) EUB0000607a PRKCB; conditions: at 2 µM
[3] = biological target: T1, Serine/threonine-protein kinase D3 (Homo sapiens) (UniProt O94806); conditions: at 10 µM
T1 sequence (whole entry): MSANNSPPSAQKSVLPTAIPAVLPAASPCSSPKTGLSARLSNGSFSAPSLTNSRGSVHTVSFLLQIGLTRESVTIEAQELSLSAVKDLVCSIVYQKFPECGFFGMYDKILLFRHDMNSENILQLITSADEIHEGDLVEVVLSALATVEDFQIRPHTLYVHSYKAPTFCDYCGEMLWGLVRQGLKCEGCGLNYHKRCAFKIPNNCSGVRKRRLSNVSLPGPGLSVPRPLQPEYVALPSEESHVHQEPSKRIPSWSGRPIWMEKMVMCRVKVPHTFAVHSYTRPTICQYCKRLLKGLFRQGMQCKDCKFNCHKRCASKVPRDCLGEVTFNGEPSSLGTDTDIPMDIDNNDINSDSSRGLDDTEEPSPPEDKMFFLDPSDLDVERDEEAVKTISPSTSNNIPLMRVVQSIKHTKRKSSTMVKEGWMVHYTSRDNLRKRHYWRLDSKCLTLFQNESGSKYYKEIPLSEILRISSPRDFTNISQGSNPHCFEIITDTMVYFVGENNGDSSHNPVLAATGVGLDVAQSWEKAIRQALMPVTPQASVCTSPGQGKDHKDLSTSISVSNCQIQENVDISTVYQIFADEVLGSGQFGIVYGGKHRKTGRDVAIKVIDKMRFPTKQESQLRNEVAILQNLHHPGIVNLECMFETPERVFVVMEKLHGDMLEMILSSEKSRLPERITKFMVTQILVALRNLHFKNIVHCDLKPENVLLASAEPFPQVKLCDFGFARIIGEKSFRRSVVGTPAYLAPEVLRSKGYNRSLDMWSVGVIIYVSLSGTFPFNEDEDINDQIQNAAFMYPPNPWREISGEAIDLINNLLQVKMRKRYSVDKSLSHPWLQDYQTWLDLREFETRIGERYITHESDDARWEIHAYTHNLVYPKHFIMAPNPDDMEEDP

[4] = biological target: Serine/threonine-protein kinase PAK 6 (Homo sapiens) (UniProt Q9NQU5); assay: Selectivity interaction (Kinase panel (Invitrogen)) EUB0000639a PAK6; conditions: at 200 nM
Chain of Serine/threonine-protein kinase PAK 6 (Homo sapiens) (Q9NQU5 whole entry, looked up): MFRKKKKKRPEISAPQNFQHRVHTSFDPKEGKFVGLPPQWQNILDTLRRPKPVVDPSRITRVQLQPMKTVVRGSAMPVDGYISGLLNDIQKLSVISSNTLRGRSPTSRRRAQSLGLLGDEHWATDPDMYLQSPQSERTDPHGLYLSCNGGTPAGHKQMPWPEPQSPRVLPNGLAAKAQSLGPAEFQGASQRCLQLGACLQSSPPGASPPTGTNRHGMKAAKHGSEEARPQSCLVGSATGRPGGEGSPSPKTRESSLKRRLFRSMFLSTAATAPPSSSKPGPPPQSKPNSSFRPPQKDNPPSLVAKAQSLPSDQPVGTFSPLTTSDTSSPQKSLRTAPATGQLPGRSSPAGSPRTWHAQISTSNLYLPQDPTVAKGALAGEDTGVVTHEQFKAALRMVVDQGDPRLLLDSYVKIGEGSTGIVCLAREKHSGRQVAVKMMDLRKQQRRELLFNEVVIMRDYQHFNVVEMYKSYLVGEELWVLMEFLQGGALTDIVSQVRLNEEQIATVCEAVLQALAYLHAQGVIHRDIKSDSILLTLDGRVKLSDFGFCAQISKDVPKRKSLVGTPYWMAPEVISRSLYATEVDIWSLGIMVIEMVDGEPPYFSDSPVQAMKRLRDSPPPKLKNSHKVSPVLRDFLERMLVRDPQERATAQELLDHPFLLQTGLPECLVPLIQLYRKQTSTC

[5] = biological target: Cyclin-dependent kinase 17 (Homo sapiens) (UniProt Q00537); assay: Selectivity interaction (ActivX KiNativ screen (kinase selectivity in THP-1 cell lysates)) EUB0000639a CDK17; assay type: subcellular; conditions: lysate, at 0.01 µM
Chain of Cyclin-dependent kinase 17 (Homo sapiens) (Q00537 whole entry, looked up): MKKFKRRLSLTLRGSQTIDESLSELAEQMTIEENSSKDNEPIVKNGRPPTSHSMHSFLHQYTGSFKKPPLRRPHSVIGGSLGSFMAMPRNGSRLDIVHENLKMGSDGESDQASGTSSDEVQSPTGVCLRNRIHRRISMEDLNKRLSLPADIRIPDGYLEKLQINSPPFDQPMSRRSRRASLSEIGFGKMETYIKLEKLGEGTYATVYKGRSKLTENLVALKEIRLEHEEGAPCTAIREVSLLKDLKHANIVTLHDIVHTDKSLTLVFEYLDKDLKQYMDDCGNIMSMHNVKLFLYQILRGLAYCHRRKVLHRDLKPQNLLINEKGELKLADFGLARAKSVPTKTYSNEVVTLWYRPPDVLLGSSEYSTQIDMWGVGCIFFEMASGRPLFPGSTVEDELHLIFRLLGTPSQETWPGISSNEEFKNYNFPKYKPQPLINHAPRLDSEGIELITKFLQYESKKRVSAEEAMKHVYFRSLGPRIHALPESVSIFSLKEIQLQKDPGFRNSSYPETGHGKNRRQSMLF

[6] = biological target: Ribosomal protein S6 kinase alpha-1 (Homo sapiens, UniProt Q15418); assay: Selectivity interaction (ActivX KiNativ screen (kinase selectivity in THP-1 cell lysates)) EUB0000639a RPS6KA1; assay type: subcellular; conditions: lysate, at 5 µM
Chain of Ribosomal protein S6 kinase alpha-1 (Q15418 whole entry): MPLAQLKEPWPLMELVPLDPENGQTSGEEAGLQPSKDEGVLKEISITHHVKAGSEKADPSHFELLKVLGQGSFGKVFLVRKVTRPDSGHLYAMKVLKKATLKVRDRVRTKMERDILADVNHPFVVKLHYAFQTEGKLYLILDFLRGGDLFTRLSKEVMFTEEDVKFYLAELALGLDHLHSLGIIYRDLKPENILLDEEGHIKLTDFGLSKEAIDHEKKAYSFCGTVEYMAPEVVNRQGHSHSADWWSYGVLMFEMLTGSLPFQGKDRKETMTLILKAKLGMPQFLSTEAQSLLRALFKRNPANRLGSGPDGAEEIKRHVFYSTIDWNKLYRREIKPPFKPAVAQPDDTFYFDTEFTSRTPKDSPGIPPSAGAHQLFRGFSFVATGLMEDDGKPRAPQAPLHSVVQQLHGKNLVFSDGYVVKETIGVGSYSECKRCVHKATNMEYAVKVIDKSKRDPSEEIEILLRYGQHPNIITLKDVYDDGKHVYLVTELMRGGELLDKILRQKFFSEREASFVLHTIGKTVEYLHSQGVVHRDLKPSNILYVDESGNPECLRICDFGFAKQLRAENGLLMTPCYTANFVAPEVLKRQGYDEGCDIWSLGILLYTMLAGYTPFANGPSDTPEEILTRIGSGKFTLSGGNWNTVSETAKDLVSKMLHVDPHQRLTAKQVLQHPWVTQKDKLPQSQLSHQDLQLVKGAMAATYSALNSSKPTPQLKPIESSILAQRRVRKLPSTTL

[7] = biological target: T2, STE20-like serine/threonine-protein kinase (Homo sapiens, UniProt Q9H2G2); assay: Selectivity interaction (ActivX KiNativ screen (kinase selectivity in THP-1 cell lysates)) EUB0000639a SLK; assay type: subcellular; conditions: lysate, at 1 µM
T2 sequence (Q9H2G2 whole entry, looked up): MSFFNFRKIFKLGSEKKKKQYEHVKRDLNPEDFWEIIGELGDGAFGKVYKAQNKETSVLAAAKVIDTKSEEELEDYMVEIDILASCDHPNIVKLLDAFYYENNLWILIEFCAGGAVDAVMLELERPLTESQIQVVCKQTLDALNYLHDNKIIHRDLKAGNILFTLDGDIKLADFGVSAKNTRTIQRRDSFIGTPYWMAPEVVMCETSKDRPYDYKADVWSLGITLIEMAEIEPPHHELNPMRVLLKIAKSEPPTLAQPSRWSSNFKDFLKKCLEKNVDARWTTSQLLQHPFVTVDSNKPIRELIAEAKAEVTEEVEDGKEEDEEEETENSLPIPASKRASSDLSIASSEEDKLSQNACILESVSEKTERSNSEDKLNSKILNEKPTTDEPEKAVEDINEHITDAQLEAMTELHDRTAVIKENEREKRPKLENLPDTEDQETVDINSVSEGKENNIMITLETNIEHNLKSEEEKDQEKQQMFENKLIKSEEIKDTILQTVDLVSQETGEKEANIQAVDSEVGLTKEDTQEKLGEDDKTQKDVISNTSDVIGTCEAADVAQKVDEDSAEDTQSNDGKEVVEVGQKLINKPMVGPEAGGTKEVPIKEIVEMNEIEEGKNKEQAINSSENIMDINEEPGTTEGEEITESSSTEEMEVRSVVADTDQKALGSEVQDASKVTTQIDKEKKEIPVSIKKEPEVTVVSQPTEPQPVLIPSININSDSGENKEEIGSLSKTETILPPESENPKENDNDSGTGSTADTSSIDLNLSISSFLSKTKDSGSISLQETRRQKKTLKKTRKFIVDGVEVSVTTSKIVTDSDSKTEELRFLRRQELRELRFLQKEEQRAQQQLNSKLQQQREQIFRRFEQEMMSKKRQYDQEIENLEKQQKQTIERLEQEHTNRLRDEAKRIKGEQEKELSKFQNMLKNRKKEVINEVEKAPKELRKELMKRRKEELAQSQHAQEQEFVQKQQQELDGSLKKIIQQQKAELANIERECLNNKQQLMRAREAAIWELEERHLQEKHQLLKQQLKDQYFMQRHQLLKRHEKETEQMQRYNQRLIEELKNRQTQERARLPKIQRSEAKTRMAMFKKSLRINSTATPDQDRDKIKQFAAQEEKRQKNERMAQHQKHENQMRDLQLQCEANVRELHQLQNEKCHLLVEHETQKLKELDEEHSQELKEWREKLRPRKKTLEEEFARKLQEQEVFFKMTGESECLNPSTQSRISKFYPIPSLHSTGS

[8] = biological target: Ephrin type-A receptor 2 (Homo sapiens) (UniProt P29317); assay: Selectivity interaction (KinomeScan (DiscoverX)) EUB0000595a EPHA2; conditions: at 10 µM
[9] = test system: Phosphatidylinositol 4,5-bisphosphate 3-kinase catalytic subunit alpha isoform (Homo sapiens), P42336 [I800L]; conditions: at 10 µM
[10] = biological target: Serine/threonine-protein kinase pim-1 (Homo sapiens, UniProt P11309); assay: Selectivity interaction (Millipore kinase profiler) EUB0000124b PIM1; conditions: at 10 µM
Chain of Serine/threonine-protein kinase pim-1 (P11309 whole entry, looked up): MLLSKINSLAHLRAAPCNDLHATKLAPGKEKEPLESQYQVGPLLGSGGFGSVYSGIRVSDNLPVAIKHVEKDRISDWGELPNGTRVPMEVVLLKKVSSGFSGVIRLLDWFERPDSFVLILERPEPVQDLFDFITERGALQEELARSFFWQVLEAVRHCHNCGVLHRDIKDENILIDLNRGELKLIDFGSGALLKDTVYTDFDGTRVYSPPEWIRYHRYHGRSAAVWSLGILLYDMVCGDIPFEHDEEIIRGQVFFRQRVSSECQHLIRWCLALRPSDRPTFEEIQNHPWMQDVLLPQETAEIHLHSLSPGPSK

[11] = biological target: Serine/threonine-protein kinase MRCK gamma (Homo sapiens) (UniProt Q6DT37); assay: Selectivity interaction (KinomeScan (DiscoverX)) EUB0000045b CDC42BPG
Chain of Serine/threonine-protein kinase MRCK gamma (Homo sapiens) (Q6DT37 whole entry): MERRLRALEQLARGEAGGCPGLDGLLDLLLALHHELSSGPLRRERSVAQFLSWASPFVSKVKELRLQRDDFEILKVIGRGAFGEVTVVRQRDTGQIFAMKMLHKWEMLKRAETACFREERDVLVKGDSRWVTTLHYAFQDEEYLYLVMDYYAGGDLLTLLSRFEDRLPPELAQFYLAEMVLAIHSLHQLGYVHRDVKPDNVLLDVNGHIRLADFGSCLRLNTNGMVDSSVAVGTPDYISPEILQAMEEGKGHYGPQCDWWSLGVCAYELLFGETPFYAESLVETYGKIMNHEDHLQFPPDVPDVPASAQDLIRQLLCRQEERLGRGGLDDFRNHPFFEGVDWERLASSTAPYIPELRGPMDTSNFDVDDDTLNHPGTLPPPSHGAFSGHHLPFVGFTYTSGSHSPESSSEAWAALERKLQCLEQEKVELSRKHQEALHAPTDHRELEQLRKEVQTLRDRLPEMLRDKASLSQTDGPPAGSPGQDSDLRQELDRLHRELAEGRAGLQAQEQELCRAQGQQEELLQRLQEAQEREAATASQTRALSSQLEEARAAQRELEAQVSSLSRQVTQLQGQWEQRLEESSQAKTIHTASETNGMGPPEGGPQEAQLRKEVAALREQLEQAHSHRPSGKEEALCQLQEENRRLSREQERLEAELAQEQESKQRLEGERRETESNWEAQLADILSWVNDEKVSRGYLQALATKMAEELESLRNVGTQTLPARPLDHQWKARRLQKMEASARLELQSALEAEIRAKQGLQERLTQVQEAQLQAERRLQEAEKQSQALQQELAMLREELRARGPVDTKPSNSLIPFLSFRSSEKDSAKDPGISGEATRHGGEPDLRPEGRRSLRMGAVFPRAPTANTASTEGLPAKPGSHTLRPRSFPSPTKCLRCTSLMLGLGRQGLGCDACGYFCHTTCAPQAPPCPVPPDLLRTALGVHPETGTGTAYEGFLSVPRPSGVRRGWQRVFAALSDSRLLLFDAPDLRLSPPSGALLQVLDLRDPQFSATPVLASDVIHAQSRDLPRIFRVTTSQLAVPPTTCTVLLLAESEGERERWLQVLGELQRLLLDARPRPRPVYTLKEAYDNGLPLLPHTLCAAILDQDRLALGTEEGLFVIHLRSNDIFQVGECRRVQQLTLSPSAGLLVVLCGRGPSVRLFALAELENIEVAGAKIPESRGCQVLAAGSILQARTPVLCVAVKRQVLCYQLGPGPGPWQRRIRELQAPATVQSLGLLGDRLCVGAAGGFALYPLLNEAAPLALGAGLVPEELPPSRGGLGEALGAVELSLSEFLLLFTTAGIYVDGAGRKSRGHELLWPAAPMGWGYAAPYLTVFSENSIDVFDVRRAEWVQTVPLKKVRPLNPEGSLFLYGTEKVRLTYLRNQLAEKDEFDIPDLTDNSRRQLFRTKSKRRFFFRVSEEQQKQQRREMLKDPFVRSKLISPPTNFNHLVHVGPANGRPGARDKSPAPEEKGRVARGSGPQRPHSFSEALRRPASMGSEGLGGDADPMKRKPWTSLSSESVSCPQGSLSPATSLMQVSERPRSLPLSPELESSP

[12] = biological target: T3, Serine/threonine-protein kinase MAK (Homo sapiens) (UniProt P20794); assay: Selectivity interaction (KinomeScan (DiscoverX)) EUB0001079a MAK; conditions: at 1 µM
T3 sequence (whole entry): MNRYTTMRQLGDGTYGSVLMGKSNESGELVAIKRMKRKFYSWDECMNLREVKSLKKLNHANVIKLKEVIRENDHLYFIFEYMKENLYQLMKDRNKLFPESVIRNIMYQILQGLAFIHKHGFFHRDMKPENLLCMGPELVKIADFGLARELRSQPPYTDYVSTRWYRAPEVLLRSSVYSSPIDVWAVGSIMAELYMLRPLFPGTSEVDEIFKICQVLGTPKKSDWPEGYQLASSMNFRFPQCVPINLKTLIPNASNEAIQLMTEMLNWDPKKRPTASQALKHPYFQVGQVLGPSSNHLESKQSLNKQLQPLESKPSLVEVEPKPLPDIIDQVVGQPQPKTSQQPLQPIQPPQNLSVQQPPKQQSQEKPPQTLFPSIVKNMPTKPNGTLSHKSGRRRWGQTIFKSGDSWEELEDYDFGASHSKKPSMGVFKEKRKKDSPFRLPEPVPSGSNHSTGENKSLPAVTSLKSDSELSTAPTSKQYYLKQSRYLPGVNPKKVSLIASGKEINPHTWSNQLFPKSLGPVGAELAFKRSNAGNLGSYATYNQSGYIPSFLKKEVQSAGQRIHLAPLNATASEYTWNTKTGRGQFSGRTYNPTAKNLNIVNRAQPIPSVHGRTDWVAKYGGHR

[13] = biological target: Serine/threonine-protein kinase PRP4 homolog (Homo sapiens) (UniProt Q13523); assay: Selectivity interaction (Kinase panel (KiNativ target engagement assay in Jurkat cells)) EUB0001635a PRPF4; assay type: cell-based; conditions: Selectivity number of off-targets 0.0, Selectivity number of targets 233.0, Source Knowledge https://www.sciencedirect.com/science/article/pii/S2451945619300674?via%3Dihub, at 1 µM
[14] = biological target: T2, STE20-like serine/threonine-protein kinase; assay: Selectivity interaction (Kinase panel (KiNativ target engagement assay in Jurkat cells)) EUB0001635a SLK; assay type: cell-based; conditions: Selectivity number of off-targets 0.0, Selectivity number of targets 233.0, Source Knowledge https://www.sciencedirect.com/science/article/pii/S2451945619300674?via%3Dihub, at 1 µM

CCC(=O)N1CC[C@H](Nc2ncnc3c2CN(c2cnc(OC)c(C(F)(F)F)c2)CC3)C1 [LENIOLISIB]
pIC50 [1]: < 5.00

CNC(=O)Nc1ccc(-c2nc(N3CC4CCC(C3)O4)c3cnn(C4CCC5(CC4)OCCO5)c3n2)cc1
% of inhibition [2]: 9%

CCN(CC)CCCCNc1ncc2cc(-c3cc(OC)cc(OC)c3)c(NC(=O)NC(C)(C)C)nc2n1
% of control [3]: 100%

CC[C@@H]1[C@H](F)C(=O)N[C@@H]1COc1nccc2cc(C(N)=O)c(OC)cc12 [ZIMLOVISERTIB]
% of inhibition [4]: 5.8% | % of inhibition [5]: 16.3% | % of inhibition [6]: 21.5% | % of inhibition [7]: -14.8%

COCC(=O)NC/C=C/c1ccc2ncnc(Nc3ccc(Oc4ccc(C)nc4)c(C)c3)c2c1 [CP-724714]
% of control [8]: 100% | % of control [9]: 100%

CC(=O)Nc1cccc(-n2c(=O)n(C3CC3)c(=O)c3c(Nc4ccc(I)cc4F)n(C)c(=O)c(C)c32)c1
% of control [10]: 94%

C=CC(=O)Nc1cc(-n2c(=O)ccc3cnc4ccc(-c5ccc(NS(C)(=O)=O)cc5)cc4c32)ccc1C
% of control ([11]; at 1 µM): 100% | % of control ([11]; at 10 µM): 90%

Nc1cnc(N2CCc3cc(S(=O)(=O)Nc4c(F)cc(Cl)cc4F)cc(N4CCCC4=O)c32)nc1 [TP-020n]
% of control [12]: 96%

C=CC(=O)Nc1ccc(C(=O)Nc2[nH]nc3c2CN(C(=O)N[C@H](CN(C)C)c2ccccc2)C3(C)C)cc1
% of engagement [13]: -2.9% | % of engagement [14]: 13%
